Results published in patent US4150970A, “Growth regulator for plants” (Board of Trustees of Michigan State University, priority 1977, dated 1979).
In brackets after ≈: the same amount, converted by molar mass.

How the values were obtained:
Chico III tomatoes = assay: Synthetic triacontanol on tomatoes grown in soil, foliage sprayed (Example III); assay type: in vivo, tomato; conditions: six days
Procedure: Synthetic triacontanol in aqueous solution was applied to rice (4 replicates) in nutrient cultures and to "Chico III" tomatoes (6 replicates) grown in soil as previously described. The response of both rice and tomatoes to synthetic triacontanol after seven and six days respectively was similar to that of the natural triacontanol with the optimum rate at between 0.01 and 0.1 mg per liter, as summarized in the following table III:
^2 Tomatoes grown in greenhouse soil and foliage sprayed, including

Solubility = assay type: physicochemical
[1] = test system: Tomato callus cell culture; assay: Growth of tomato callus cell culture (Example XIX); assay type: cell-based, Lycopersicon esculentum, var. marglobe
Procedure: (§1) Cell cultures were separately grown in disposable petri dishes.
2. Tomato (Lycopersicon esculentum, var. marglobe)
(§2) The cultures were grown on the basic medium of mineral salts described by Linsmaier and Skoog (Physiol. Plant, […] (1965)). Vitamins and hormones varied for each tissue (Table X-1) to maintain the tissues in an undifferentiated state. For all of the tissues inositol was 100 mg/liter and agar 1%. Sucrose was 3% for all but the bean which was 2%.
(§3) Callus was produced from pith for tobacco, potato and tomato. Bean callus was produced from hypocotyl sections and barley callus from immature ovarian tissue. Subcultures were maintained on the appropriate media.
(§4) Stock solutions of triacontanol were prepared at a concentration of 100 μg/ml. The solvent used was glass distilled benzene. The lower concentrations were obtained by serial dilutions. Treatments were applied to 4.5 cm Whatman #1 filter paper disks in 100 μl aliquots. Controls received 100 μl of glass distilled benzene. The solvent was evaporated for approximately 15 minutes and the filter papers were then placed on the agar medium.
(§5) Callus tissue was then broken into pieces of approximately the same size (10 mg) and placed in the petri dishes on the treated filter paper (one piece per dish). For experiments conducted in the light the intensity was approximately 2.0 microwatts/cm^2 -namometer. Fresh weight measurements were made after 12 days of growth.

[2] = test system: Barley callus cell culture; assay: Growth of barley callus cell culture (Example XIX); assay type: cell-based, interspecific cross of Hordeum vulgare and Hordeum jubatum
Procedure: as §1
5. Barley (interspecific cross of Hordeum vulgare and Hordeum jubatum)
as §2, §3, §4, §5

[3] = printed 10.0 g triacontanol, 12 days

solubility in alcohol, qualitative (Solubility; alcohol): soluble in alcohol
solubility in ether and benzene, qualitative (Solubility; ether and benzene): very soluble in ether and benzene
solubility in water, qualitative (Solubility; water): relatively water insoluble
solubility (Solubility; water, read-out: solubility limit in water): ~0.3 µg/mL (≈ 0.684 µM)
SMILES: CCCCCCCCCCCCCCCCCCCCCCCCCCCCCCO [Triacontanol, 1-triacontanol]
Dry wt (Chico III tomatoes; 0.001 mg/liter): 227 mg/shoot
Dry wt (Chico III tomatoes; 0.010 mg/liter): 251 mg/shoot
Dry wt (Chico III tomatoes; 0.100 mg/liter): 245 mg/shoot
Dry wt (Chico III tomatoes; 1.000 mg/liter): 234 mg/shoot
% of control [1, 3]: 140 % of control
Fresh weight [1, 3]: 16.8
growth of in vitro cell cultures ([1]; tomato): significant increases in growth
growth of in vitro cell cultures ([2]; barley): significant increases in growth
% of control [2, 3]: 167 % of control
Fresh weight [2, 3]: 35.0
